Experimental data: US20240092770A1, “Heterocycle RMB39 Modulators” (Recursion Pharmaceuticals, Inc., priority 2022, published 2024)

biological target: RBM39 and the DCAF15 complex (RBM39-Flag / His-DCAF15-DDA1-DDB1) (Homo sapiens (Human), UniProt Q14498+Q66K64); assay: DCAF15 RBM39 complex formation TR-FRET assay; format: binding; details: RBM39(R150-D331) 3xFlag 50 nM, His-DCAF15-DDA1-DDB1 10 nM, 60 min room temperature
Experimental: A TR-FRET assay was used to assess the effect of compounds disclosed herein on the interaction between RBM39 and the DCAF15 complex. Test compounds were dissolved to form a 10 mM DMSO stock solution. A 45 μL aliquot of the stock solution was transferred to a 384 pp-plate, and a threefold, 8-point dilution was performed via transferring 15 μL compound solution into 30 μL of DMSO. The plates were then spun at room temperature at 1,000 RPM for 1 minute.
A 30 nL aliquot of the diluted compound was transferred to a 384 well plate, which was incubated at room temperature for 15 minutes. Next, Solutions 1, 2, and 3 were prepared as described in the below tables. A 5 μL aliquot of Solution 2 was added to each well, followed by 5 μL of Solution 3 to start the reaction. The final volume of each well was 10 μL. The plates were incubated at room temperature for 60 minutes, and then read.
Next, an RBM39 (R150-D331) 3× Flag used in TR-FRET assay was prepared:
Recombinant RBM39 protein is composed of the R1R2 of RBM39 (aa 150 to 331; UniProt: Q14498). The coding sequence was sub-cloned into pGEX4T-1-RBM39-flag vector, expressed as a GST-fusion protein with N-terminal TEV protease cleavage site. A 3× Flag tag was added to the C-terminal of R1R2 used in a FRET assay.

| Compound | EC50 [nM] |
| --- | --- |
| Cc1ccc(NS(=O)(=O)c2ncc(P(C)(C)=O)s2)c2[nH]cc(C#N)c12 [Compound 111, N-(3-cyano-4-methyl-1H-indol-7-yl)-5-(dimethylphosphoryl)thiazole-2-sulfonamide] | 1630 |
| CNC(=O)c1cnc(S(=O)(=O)Nc2ccc(C)c3c(C#N)c[nH]c23)s1 [Compound 126] | 960 |
| CCN(CC)C(=O)c1csc(S(=O)(=O)Nc2ccc(C)c3c(C#N)c[nH]c23)n1 [Compound 128] | 650 |
| Cc1ccc(NS(=O)(=O)c2ncc(C(=O)NCCO)s2)c2[nH]cc(C#N)c12 [Compound 129] | 1820 |
| Cc1ccc(NS(=O)(=O)c2ncc(C(=O)N3CCCC3)s2)c2[nH]cc(C#N)c12 [Compound 130] | 1130 |
| Cc1ccc(NS(=O)(=O)c2ncc(C(=O)N3CCN(C)CC3)s2)c2[nH]cc(C#N)c12 [Compound 131] | 3800 |
| O=S(=O)(Nc1cccc2c(Cl)c[nH]c12)c1nccs1 [Compound 133] | 2670 |
| N#Cc1c[nH]c2c(NS(=O)(=O)c3cnc(Cl)s3)cccc12 [Compound 136] | 511 |
| CCc1nc(S(=O)(=O)Nc2ccc(C)c3c(C#N)c[nH]c23)cn1CC(=O)NC1CC1 [Compound 139] | 6070 |
| Cc1ccc(NS(=O)(=O)c2ncc(C(N)=O)s2)c2[nH]cc(C#N)c12 [Compound 141] | 919 |
| Cc1ccc(NS(=O)(=O)c2ncc(C(=O)N3CCC(O)C3)s2)c2[nH]cc(C#N)c12 (stereo not drawn) [Compound 143] | 2150 |
| Cc1ccc(NS(=O)(=O)c2ncc(C(=O)N3CCCCC3)s2)c2[nH]cc(C#N)c12 [Compound 144] | 1560 |
| O=S(=O)(Nc1cc(F)cc2c(Cl)c[nH]c12)c1nc(C(F)(F)F)cs1 [Compound 149] | 897 |
| N#Cc1c[nH]c2c(NS(=O)(=O)c3nc(C(F)(F)F)cs3)cc(F)cc12 [Compound 150] | 1250 |
| O=S(=O)(Nc1cccc2c(Cl)c[nH]c12)c1nc(C(F)(F)F)cs1 [Compound 151] | 344 |
| Cc1nc(S(=O)(=O)Nc2ccc(C)c3c(C#N)c[nH]c23)cs1 [Compound 152] | 281 |
| Cc1nc(S(=O)(=O)Nc2cccc3c(C#N)c[nH]c23)cs1 [Compound 153] | 940 |
| CCc1nc(S(=O)(=O)Nc2cccc3c(Cl)c[nH]c23)c[nH]1 [Compound 158] | 433 |
| Cc1nc(S(=O)(=O)Nc2cccc3c(C#N)c[nH]c23)sc1C [Compound 160] | 674 |
| Cc1ccc(NS(=O)(=O)c2cn(CC(C)C)cn2)c2[nH]cc(C#N)c12 [Compound 161] | 978 |
| CCCn1cnc(S(=O)(=O)Nc2ccc(C)c3c(C#N)c[nH]c23)c1 [Compound 162] | 591 |
| N#Cc1c[nH]c2c(NS(=O)(=O)c3nc(Cl)cs3)ccc(F)c12 [Compound 163] | 893 |
| O=S(=O)(Nc1cccc2c(C(F)(F)F)c[nH]c12)c1cncs1 [Compound 186] | 258 |
| O=S(=O)(Nc1ccc(F)c2c(Cl)c[nH]c12)c1cncs1 [Compound 187] | 228 |
| N#Cc1c[nH]c2c(NS(=O)(=O)c3cnc(N4CCOCC4)s3)cccc12 [Compound 205] | 632 |

Next, values leading:

| EC50 [nM] | Compound |
| --- | --- |
| 1360 | Cc1ccc(NS(=O)(=O)c2ncc(C(=O)N3CCOCC3)s2)c2[nH]cc(C#N)c12 [Compound 112] |
| 3260 | N#Cc1c[nH]c2c(NS(=O)(=O)c3nccs3)ccc(F)c12 [Compound 114] |
| 2130 | N#Cc1c[nH]c2c(NS(=O)(=O)c3ncc(Cl)s3)cccc12 [Compound 116] |
| 99.6 | Cc1ccc(NS(=O)(=O)c2cnc(C(F)F)s2)c2[nH]cc(C#N)c12 [Compound 117] |
| 168 | CCc1ncc(S(=O)(=O)Nc2ccc(C)c3c(C#N)c[nH]c23)o1 [Compound 118] |
| 359 | N#Cc1c[nH]c2c(NS(=O)(=O)c3cnc(C(F)F)s3)cccc12 [Compound 120] |
| 959 | Cc1ccc(NS(=O)(=O)c2ncc(C(=O)N(C)C)s2)c2[nH]cc(C#N)c12 [Compound 127] |
| 6650 | N#Cc1c[nH]c2c(NS(=O)(=O)c3nccs3)cc(F)cc12 [Compound 132] |
| 1760 | N#Cc1c[nH]c2c(NS(=O)(=O)c3nc(C(F)(F)F)cs3)cccc12 [Compound 134] |
| 47 | Cc1ccc(NS(=O)(=O)c2cc(C(C)C)no2)c2[nH]cc(C#N)c12 [Compound 135] |
| 423 | CC(C)c1cc(S(=O)(=O)Nc2cccc3c(C#N)c[nH]c23)on1 [Compound 138] |
| 6620 | CCc1nc(S(=O)(=O)Nc2ccc(C)c3c(C#N)c[nH]c23)cn1CC(=O)O [Compound 140] |
| 1960 | COCCNC(=O)c1cnc(S(=O)(=O)Nc2ccc(C)c3c(C#N)c[nH]c23)s1 [Compound 142] |
| 505 | CCc1nc(S(=O)(=O)Nc2ccc(F)c3c(Cl)c[nH]c23)c[nH]1 [Compound 146] |
| 2030 | CCc1nc(S(=O)(=O)Nc2ccc(F)c3c(C#N)c[nH]c23)c[nH]1 [Compound 147] |
| 1310 | N#Cc1c[nH]c2c(NS(=O)(=O)c3nc(C(F)(F)F)cs3)ccc(F)c12 [Compound 148] |
| 1840 | CCc1nc(S(=O)(=O)Nc2cc(F)cc3c(C#N)c[nH]c23)c[nH]1 [Compound 157] |
| 450 | O=S(=O)(Nc1ccc(F)c2c(Cl)c[nH]c12)c1nc(C(F)(F)F)cs1 [Compound 159, N-(3-chloro-4-fluoro-1H-indol-7-yl)-4-(trifluoromethyl)-1,3-thiazole-2-sulfonamide] |
| 1010 | O=S(=O)(Nc1cccc2c(C(F)(F)F)c[nH]c12)c1nccs1 [Compound 185] |
| 47 | Cc1ccc(NS(=O)(=O)c2cncs2)c2[nH]cc(C(F)(F)F)c12 [Compound 198] |
| 964 | N#Cc1c[nH]c2c(NS(=O)(=O)c3cncs3)ccc(F)c12 [Compound 199] |
| 207 | Cc1ncc(S(=O)(=O)Nc2cccc3c(Cl)c[nH]c23)s1 [Compound 200] |
| 391 | Cc1ncc(S(=O)(=O)Nc2ccc(F)c3c(C#N)c[nH]c23)s1 [Compound 201] |
| 241 | CC(C)(O)c1ncc(S(=O)(=O)Nc2cccc3c(C#N)c[nH]c23)s1 [Compound 202] |
| 583 | O=S(=O)(Nc1cccc2c(Cl)c[nH]c12)c1cncs1 [Compound 203] |
| 130 | O=S(=O)(Nc1cccc2c(Cl)c[nH]c12)c1cnc(C(F)F)s1 [Compound 204] |
| 420 | N#Cc1c[nH]c2c(NS(=O)(=O)c3cnsc3)cccc12 [Compound 215] |
| 3920 | N#Cc1c[nH]c2c(NS(=O)(=O)c3cnsn3)cccc12 [Compound 254] |
| 1160 | N#Cc1c[nH]c2c(NS(=O)(=O)c3cnns3)cccc12 [Compound 255] |
